From patent US20230391774A1, “Novel Compounds” (AC Immune SA, priority 2020, published 2023)
“Also recorded” adds a separate entry of the source. Counter-ions that a name gives are not always drawn.

Legend:
[1] = target: T1, Tau K18 fragment aggregates (amino acids 244 to 372 of human Tau441) (Homo sapiens, UniProt P10636); assay: Tau K18 disaggregation assay by ThT; type: biochemical; details: ThT fluorescence; 2 μM K18 aggregates, 30 minutes at RT
T1 construct: encompassing amino acids 244 to 372 of the longest isoform (2N4R) of human Tau441; purchased Biotechne; host or cells: bacteria
T1 sequence (P10636 561-689): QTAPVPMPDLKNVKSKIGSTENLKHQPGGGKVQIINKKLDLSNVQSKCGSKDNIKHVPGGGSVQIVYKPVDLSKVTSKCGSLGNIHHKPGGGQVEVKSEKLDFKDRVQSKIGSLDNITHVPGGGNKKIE
Protocol: Tau K18 Disaggregation Assay by ThT
The Tau K18 fragment, encompassing amino acids 244 to 372 of the longest isoform (2N4R) of human Tau441, was expressed in bacteria and purified (Biotechne). For the K18 disaggregation assay by ThT, 35 μM of recombinant K18 in PBS were aggregated for 24 hours at 37° C. in presence of 25 μM of heparin (Sigma-Aldrich) and 10 mM of 1,4-Dithiothreito (DTT from Sigma-Aldrich) under shaking at 750 RPM. Compound 1 was dissolved in anhydrous dimethyl sulfoxide (DMSO, Sigma-Aldrich) to reach a concentration of 10 mM. K18 aggregates and serial dilutions of compounds were mixed together in PBS (volume 50 μL) to a final concentration of 2 μM of K18 aggregates and from 400 to 0.1 μM of Compound 1. The mixture was incubated for 30 minutes at room temperature (RT), then 40 μL of this mixture were transferred into a black 384-well plate assay (Perkin-Elmer) and mixed with 10 μL of 100 μM ThT in 250 mM glycine (both from Sigma-Aldrich) in PBS. Fluorescence (relative fluorescence units; RFU) was measured in monoplicate or duplicate on a Tecan reader (excitation: 440 nm; emission: 485 nm). Percentage of K18 disaggregation was then calculated and half maximal effective concentration (EC50) was determined using GraphPad Prism version 8 (GraphPad Software) assuming a one-binding site fitting model, see Table 3 and Table 4.

[2] = target: T2, flTau aggregates (longest isoform of human Tau, 2N4R) (Homo sapiens, UniProt P10636); assay: Full-length Tau (flTau) disaggregation assay by Thioflavin T (ThT); type: biochemical; details: ThT fluorescence; 60 nM flTau aggregates, 30 minutes at RT; read-out: flTau disaggregation EC50
T2 construct: 35 μM of recombinant full-length (fl) Tau in phosphate-buffered saline (PBS) were aggregated; purchased Biotechne; host or cells: bacteria
T2 sequence (P10636 1-441 isoform P10636-8): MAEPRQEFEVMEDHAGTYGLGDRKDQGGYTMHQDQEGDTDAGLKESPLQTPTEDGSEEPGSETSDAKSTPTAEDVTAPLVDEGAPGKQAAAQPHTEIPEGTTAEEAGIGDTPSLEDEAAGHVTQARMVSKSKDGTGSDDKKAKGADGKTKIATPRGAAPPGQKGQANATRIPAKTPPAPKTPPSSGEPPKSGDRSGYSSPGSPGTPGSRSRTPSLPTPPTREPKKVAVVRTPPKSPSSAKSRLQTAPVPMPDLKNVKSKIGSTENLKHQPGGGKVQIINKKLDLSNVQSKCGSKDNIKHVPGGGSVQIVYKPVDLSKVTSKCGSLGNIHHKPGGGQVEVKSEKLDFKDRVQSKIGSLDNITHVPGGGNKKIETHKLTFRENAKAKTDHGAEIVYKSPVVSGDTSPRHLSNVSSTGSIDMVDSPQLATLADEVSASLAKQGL
How it was run: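 Recombinant 2N4R Tau (35 μM) pre-aggregated 72 h at 37 °C with 35 μM heparin and 10 mM DTT under shaking. Aggregates (60 nM final) incubated 30 min at RT in PBS with compound (20–0.0012 μM), then ThT added; fluorescence read at ex 440/em 485 nm and EC50 fitted to one-site model.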

[3] = test system: misfolded Tau in SH-SY5Y cell line overexpressing full-length human Tau P301L; assay: Reduction of intracellular misfolded Tau; type: cell-based; details: 20 nM, 72 hours, differentiated P301L SH-SY5Y cells, MC1 antibody, vs DMSO control
Protocol: The SH-SY5Y cell line overexpressing the full-length form of human Tau carrying the P301L mutation were cultured in complete medium DMEM-F12 4.5 g/L Glutamax (Invitrogen), 15% FBS (Biochrom), 1% Peni/Strep (Invitrogen) supplemented with 2.5 μg/ml of G418 (Sigma-Aldrich) selection antibiotic. For the in vitro differentiation from neuroblastoma cells to neurons, cells were plated in 24-well plates (Costar 3337) on glass coverslips coated with Poly-D-Lysine at a seeding density of 2.5×10^3 cells. P301L SH-SY5Y cells were differentiated for 1 week at 37° C. in culture medium in presence of 10 μM retinoic acid (RA; Sigma, R2625). Every 48-72 h media was changed and fresh retinoic acid was added. For the treatment with compound 1, were dispensed on the cells at concentrations between 1-20 nM for 72 hours, with changing compounds every 24 h. After the incubation with Compound 1, cells were pre-fixed with 2% PFA for 5 min followed by a 15 min fixation with 4% PFA. […] Permeabilized fixed cells were then incubated overnight in 10% NGS/0.25% Triton X-100 in PBS with monoclonal anti-mouse MC1 antibody detected misfolded Tau (provided by Prof. Peter Davies, Albert Einstein College of Medicine, New York, USA) and polyclonal anti-rabbit total Tau (Abcam; ab64193) both diluted 1:1000.

[4] = test system: rTg4510 mice; assay: In vivo efficacy: aggregated Tau in cortical total brain homogenate (AlphaLISA); details: 100 mg/kg bi-daily by gavage for 4 weeks
Source text: In Vivo Efficacy of the Compounds of the Present Invention
Double transgenic rTg4510 mice express the full-length human Tau carrying the P301L mutation (Tau4RON-P301L) under the control of the tet-inducible (or tetracycline-inducible system) CaMKII promoter (Ramsden et al., J. Neurosci., 2005·25(46):10637-10647). Single transgenic mice expressing only the tetracycline-controlled transactivator (tTA) were used as genotype controls. The study comprised 4 treatment groups (n=15 female for tTa group and n=33 female mice/group for the treatment) with the following group distribution (see Table 5). Mice were distributed over 5 cohorts and cages were composed with an average of 3 mice per cage. Compounds or vehicle control were administered bi-daily by gavage for 4 weeks starting at the age of 5 months. […]
To prepare cortical total brain homogenates (Cx-TBH), frozen brains were resuspended in 9 volumes/weight of ice-cold homogenization buffer [25 mM Tris-HCl pH 7.4, 150 mM NaCl, 1 mM EDTA, 1 mM EGTA containing phosphatase inhibitors (30 mM NaF, 0.2 mM Na3VO4, 1 nM Okadaic acid, 1 mM PMSF, 5 mM Na4P2O7) and protease inhibitor cocktail (Complete™, Roche)] and homogenized in Eppendorf tubes with a VWR pellet mixer (47747-370). […] Aggregated Tau in total cortical homogenate was quantified using the following antibody pairs: HT7-Acceptor beads+biotin (BT)-HT7-donor beads. […]

[5] = test system: rTg4510 mice; assay: In vivo efficacy: NFTs and neuroinflammation markers by immunohistochemistry; details: 100 mg/kg, immunohistochemistry (data not shown)
Source text: Double transgenic rTg4510 mice express the full-length human Tau carrying the P301L mutation (Tau4RON-P301L) under the control of the tet-inducible (or tetracycline-inducible system) CaMKII promoter (Ramsden et al., J. Neurosci., 2005·25(46):10637-10647). Single transgenic mice expressing only the tetracycline-controlled transactivator (tTA) were used as genotype controls. The study comprised 4 treatment groups (n=15 female for tTa group and n=33 female mice/group for the treatment) with the following group distribution (see Table 5). Mice were distributed over 5 cohorts and cages were composed with an average of 3 mice per cage. Compounds or vehicle control were administered bi-daily by gavage for 4 weeks starting at the age of 5 months.
After incubation of this mixture at room temperature for 1 hour, 25 μL of Streptavidin Donor beads (Perkin Elmer) at 25 μg/mL were added in the dark. Plates were analyzed after 30 minutes incubation using the EnSpire Alpha instrument and EnSpire Workstation version 3.00.

Row | Compound | EC50 [1] [µM] | EC50 [2] [µM] | further results
1 | c1ccc2c(C3CCN(c4ccc5oc(N6CCOCC6)nc5c4)CC3)n[nH]c2c1 [Example 1, 5-(4-(1H-indazol-3-yl)piperidin-1-yl)-2-morpholinobenzo[d]oxazole] | < 1 | < 1 | Reduction of intracellular misfolded Tau [3]: Reduction of intracellular misfolded Tau; also recorded: significantly different from DMSO control; aggregated Tau in Cortical Total brain homogenate (Cx-TBH) ([4]; 100 mg/kg): significantly decreased; aggregated Tau in Cortical Total brain homogenate (Cx-TBH) ([4]; listed as Compound 1, 100 mg/kg): decreased of aggregated Tau; NeuroFibrillary Tangles (NFTs) [5]: significant decrease; neuroinflammation marker CD68 [5]: significant decrease; neuroinflammation marker Iba1 [5]: significant decrease
2 | c1ccc2c(C3CCN(c4cc5sc(N6CCOCC6)nc5cn4)CC3)n[nH]c2c1 [Example 35, 4-(6-(4-(1H-indazol-3-yl)piperidin-1-yl)thiazolo[4,5-c]pyridin-2-yl)morpholine] | 1 to 10 | 1 to 10 | –
3 | c1ccc2c(C3CCN(c4ccc5nc(N6CCOCC6)sc5c4)CC3)n[nH]c2c1 [Example 44, 4-(6-(4-(1H-indazol-3-yl)piperidin-1-yl)benzo[d]thiazol-2-yl)morpholine] | 1 to 10 | 1 to 10 | –
4 | Cn1cc(C2CCN(c3ccc4nc(N5CCOCC5)oc4c3)CC2)c2cc(F)cnc21 [Example 111, 6-(4-(5-fluoro-1-methyl-1H-pyrrolo[2,3-b]pyridin-3-yl)piperidin-1-yl)-2-morpholinobenzo[d]oxazole hydrochloride] | 1 to 10 | 1 to 10 | –
5 | c1ccc2c(Nc3ccc4oc(N5CCOCC5)nc4c3)n[nH]c2c1 [Example 36, N-(1H-indazol-3-yl)-2-morpholinobenzo[d]oxazol-5-amine] | 10 to 50 | 1 to 10 | –
6 | c1ccc2c(C3CCN(c4ccc5oc(N6CCOCC6)nc5c4)C3)n[nH]c2c1 (centres unmarked) [Example 37, 5-(3-(1H-indazol-3-yl)pyrrolidin-1-yl)-2-morpholinobenzo[d]oxazole] | < 1 | 1 to 10 | –
7 | Cn1cc(C2CCN(c3cc4sc(N5CCOCC5)nc4cn3)CC2)c2cc(F)cnc21 [Example 110, 4-(6-(4-(5-fluoro-1-methyl-1H-pyrrolo[2,3-b]pyridin-3-yl)piperidin-1-yl)thiazolo[4,5-c]pyridin-2-yl)morpholine hydrochloride] | 10 to 50 | 1 to 10 | –
8 | c1ccc2c(C3CCN(c4cc5sc(N6CCOCC6)nc5cn4)CC3)c[nH]c2c1 [Example 24, 4-(6-(4-(1H-indol-3-yl)piperidin-1-yl)thiazolo[4,5-c]pyridin-2-yl)morpholine] | < 1 | < 1 | –
9 | c1cnc2[nH]cc(C3CCN(c4ccc5oc(N6CCOCC6)nc5c4)CC3)c2c1 [Example 20, 5-(4-(1H-pyrrolo[2,3-b]pyridin-3-yl)piperidin-1-yl)-2-morpholinobenzo[d]oxazole] | 1 to 10 | < 1 | –
10 | c1ccc2c(C3CCN(c4cnc5nc(N6CCOCC6)oc5c4)CC3)n[nH]c2c1 [Example 47, 6-(4-(1H-indazol-3-yl)piperidin-1-yl)-2-morpholinooxazolo[4,5-b]pyridine] | 10 to 50 | 1 to 10 | –
11 | c1ccc2c(C3CCN(c4ccc5oc(N6CCOCC6)nc5c4)C3)n[nH]c2c1 (centres unmarked) [Example 38, 5-(3-(1H-indazol-3-yl)pyrrolidin-1-yl)-2-morpholinobenzo[d]oxazole] | 1 to 10 | 1 to 10 | –
12 | C1=C(c2n[nH]c3ccccc23)CCN(c2ccc3oc(N4CCOCC4)nc3c2)C1 [Example 50, 5-(4-(1H-indazol-3-yl)-3,6-dihydropyridin-1(2H)-yl)-2-morpholinobenzo[d]oxazole] | < 1 | < 1 | –
13 | c1ccc2c(C3CCN(c4ccc5oc(N6CCOCC6)nc5c4)CC3)c[nH]c2c1 [Example 19, 5-(4-(1H-indol-3-yl)piperidin-1-yl)-2-morpholinobenzo[d]oxazole] | 1 to 10 | 1 to 10 | –
